Measured values: US10457707B2, “Substituted urea depsipeptide analogs as activators of the CLPP endopeptidase” (priority 2015, dated 2019)
≈ marks a conversion by molar mass, not a printed value. Where two headings read alike, the source gives them in different places. *1 amine or outer side, *2 acyl side, *3 side chain or, on linkers, in order; H or OH if unused. Where a SMILES comes first, the peptide text is derived from it. Bridges are numbered along the chain shown (N, C = ends). [ ]: non-standard residue; d: D form. The star is where a group is joined. ξ: configuration not given here. NH(1,3-benzodioxol-5-yl) = c1cc2c(cc1N*)OCO2; Phe(3,5-F2) = N[C@@H](Cc1cc(F)cc(F)c1)C(=O)O; NH(1-Me-indolin-5-yl) = CN1CCc2cc(N*)ccc21; Morpholine(3S-CO) = O=C(O)[C@@H]1COCCN1; Pro(4R-Me) = C[C@H]1CN[C@H](C(=O)O)C1; NH(3,4-Me2-phenyl) = Cc1ccc(N*)cc1C; Hyp = O=C(O)[C@@H]1C[C@@H](O)CN1; NH(4-Me-phenyl) = Cc1ccc(N*)cc1; ξNMeThr = CNC(C(=O)O)[C@@H](C)O; aThr = C[C@H](O)[C@H](N)C(=O)O; CO = O=C([*:1])[*:2]

Columns and labels:
Sa-ClpP = biological target: T1, Sa-ClpP (Staphylococcus aureus, UniProt Q2G036); experiment: Sa-ClpP casein-BODIPY ClpP activation assay, method variant not marked in Table 5; format: biochemical, S. aureus
T1 construct: made in house; host or cells: E. coli BL21(DE3)
T1 sequence (Q2G036 1-195): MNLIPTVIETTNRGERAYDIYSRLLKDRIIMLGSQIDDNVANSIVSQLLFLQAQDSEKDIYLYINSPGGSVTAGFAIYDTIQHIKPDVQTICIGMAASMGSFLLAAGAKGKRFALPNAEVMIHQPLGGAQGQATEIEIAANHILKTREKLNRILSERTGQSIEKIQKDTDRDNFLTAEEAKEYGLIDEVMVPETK
Procedure: The compounds were assayed in a casein digestion assay in order to determine their effect on ClpP activation. Briefly, the assay was carried out using S. aureus ClpP (“Sa-ClpP”) overexpressed in E. coli BL21(DE3) and purified in a two-step process. Purity of the protein was assessed through SDS PAGE analysis. EC50 evaluations were conducted in triplicate in a 20 μl assay format using a method adapted from Maurizi et al. (Methods Enzymol. (1994) 244:314-331). Each well contained 10 μM saClpP, 25 μg/ml BODIPY FL casein (Invitrogen Corporation, San Diego, Calif.), and test compound in concentrations ranging between 0-1000 μM in assay buffer (50 mM Tris pH 8, 200 mM KCl, and 1 mM TCEP). The reaction took place at 37° C. Fluorescence (excitation 485 nm; emission 528 nm) was measured in five minute intervals over a 45 min period using a BioTek HT fluorescence microplate reader (BioTek Instruments, Inc., Winooski, Vt.). Velocity of each reaction was calculated and data was fit to a dose response curve using GraphPad Prism® software (GraphPad Software, Inc., La Jolla, Calif.). EC50 is the effective concentration of compound which causes 50% activation of S. aureus ClpP in the foregoing BODIPY FL casein assay.
Alternatively, the assay was carried out using EnzCheck Protease Assay (Molecular Probes, Catalog # E6638). The assay was performed in black 384 well, flat bottom, low volume plates (Greiner Bio-One, Monroe, N.C., catalog #784076). 10 μL of Tris*HCl buffer, pH 8.0 with 0.01% Triton X-100 was pipetted into each well using a Well-Mate (Thermo Scientific, Waltham, Mass.). 0.4 μL test compounds or controls (2% DMSO v/v) were added to each well using a Biomek FX liquid handling robot (Beckman Coulter, Indianapolis Ind.). After addition of test compounds and controls, 10 μL of master mix containing 2 μM Sa-ClpP and 2 μM substrate (Bodipy-FL labeled casein) in Tris*HCl buffer, pH 8.0 with 0.01% (v/v) Triton X-100, was pipetted into each well. All assays were performed in triplicate, under linear velocity conditions. Increase in fluorescent signal following activation of Sa-ClpP by test compounds and controls was measured over time period of 30 mins using filters with excitation at 485±15 nm and emission at 520±25 nm on a PHERAstar FS Multilabel reader (BMG, Cary, N.C.). […] Data analysis was done by measuring rate of casein degradation over time (slopes). Computed degradation rates (slopes) were normalized to positive (ADEP4) or negative (DMSO) controls. Using nonlinear regression curve fitting EC50 values and % activation were determined using the equation “log [agonist] vs. Response-variable slope (four parameters)-symmetrical” in the program Prism 6 (GraphPad Software, La Jolla, Calif. USA, www.graphpad.com).
Substituted urea depsipetide analogs were synthesized as described above. The EC50 for ClpP activation was determined in the Sa-ClpP in casein-BODIPY assay as described above. The IC50 for ADEP displacement was determined in the ADEP displacement fluorescent polarization assay as described above; and the IC50 for growth inhibition was determined in the Vero cell cytotoxicity assay as described above. The compound number corresponds to the compound numbers used in Tables 1-4 and the experimental examples described above.

[1] = system: Staphylococcus aureus, USA 300 wherein ClpP is inactivated; experiment: Minimal inhibitory concentration assay; format: cell-based
How it was run: (§1)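 CLSI broth microdilution: two-fold compound dilutions from 200 μM final, ~10^5 cfu/mL inoculum, aerobic overnight incubation at 37 °C. MIC read visually as lowest concentration preventing growth; S. aureus USA 300 compared with its ClpP-inactivated counterpart to check ClpP dependence.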

[2] = system: Staphylococcus aureus, USA 300; experiment: Minimal inhibitory concentration assay; format: cell-based; conditions: USA300, read-out: Minimal Inhibitory Concentrations S. aureus USA 300
How it was run: as §1

[3] = values without ** or † mark, assay variant not stated, read-out: ClpP Activation EC50

| Compound | EC50 (Sa-ClpP) | Minimal Inhibitory Concentrations S. aureus USA 300 ΔClpP [1] | MIC [2] | EC50 (Sa-ClpP; [3]) |
| --- | --- | --- | --- | --- |
| C[C@@H]1C[C@H]2C(=O)OC[C@H](NC(=O)[C@H](Cc3cc(F)cc(F)c3)NC(=O)Nc3ccc4c(c3)OCO4)C(=O)N3C[C@H](O)C[C@H]3C(=O)N3CCCCC3C(=O)N[C@@H](C)C(=O)N2C1 (stereo partly drawn) [Compound 325, (S)-2-(3-(benzo[d][1,3]dioxol-5-yl)ureido)-3-(3,5-difluorophenyl)-N-((2R,6S,8aR,14aS,16R,20S,23aS)-16-hydroxy-2,6-dimethyl-5,8,14,19,23-pentaoxooctadecahydro-1H,5H,14H,19H-pyrido[2,1-i]dipyrrolo[2,1-c:2′,1′-l][1]oxa[4,7,10,13]tetraazacyclo-hexadecin-20-yl)propanamide] | 350 ± 20 nM | >20 µM | 2.5 µM (≈ 2.1 µg/mL) |  |
| Cc1ccc(NC(=O)N[C@@H](Cc2cc(F)cc(F)c2)C(=O)N[C@H]2COC(=O)[C@@H]3C[C@@H](C)CN3C(=O)[C@H](C)NC(=O)[C@@H]3COCCN3C(=O)[C@@H]3C[C@@H](O)CN3C2=O)cc1 [Compound 317, (S)-3-(3,5-difluorophenyl)-N-((6aS,8R,12S,15aS,17R,21S,23aS)-8-hydroxy-17,21-dimethyl-6,11,15,20,23-pentaoxooctadecahydro-6H,11H,15H-[1,4]oxazino[3,4-i]dipyrrolo[2,1-c:2′,1′-l][1]oxa[4,7,10,13]tetraazacyclohexadecin-12-yl)-2-(3-(p-tolyl)ureido)propanamide] ({NH(4-Me-phenyl)-CO}-[Phe(3,5-F2)]S[Hyp][Morpholine(3S-CO)]A[Pro(4R-Me)]; ester 2-C) |  | 12.5 µM | 12.5 µM (≈ 10.1 µg/mL) | 380 ± 30 nM |
| C[C@@H]1C[C@H]2C(=O)O[C@@H](C)[C@H](NC(=O)[C@H](Cc3cc(F)cc(F)c3)NC(=O)Nc3ccc4c(c3)CCN4C)C(=O)N3C[C@H](O)C[C@H]3C(=O)N3CCOC[C@H]3C(=O)N[C@@H](C)C(=O)N2C1 [Compound 315, (S)-3-(3,5-difluorophenyl)-N-((6aS,8R,12S,13S,15aS,17R,21S,23aS)-8-hydroxy-13,17,21-trimethyl-6,11,15,20,23-pentaoxooctadecahydro-6H,11H,15H-[1,4]oxazino[3,4-i]dipyrrolo[2,1-c:2′,1′-l][1]oxa[4,7,10,13]tetraazacyclohexadecin-12-yl)-2-(3-(1-methylindolin-5-yl)ureido)propanamide] ({NH(1-Me-indolin-5-yl)-CO}-[Phe(3,5-F2)][aThr][Hyp][Morpholine(3S-CO)]A[Pro(4R-Me)]; ester 2-C) |  | >20 µM | 10 µM (≈ 8.67 µg/mL) | 1060 ± 40 nM |
| Cc1ccc(NC(=O)N[C@@H](Cc2cc(F)cc(F)c2)C(=O)N[C@H]2COC(=O)[C@@H]3C[C@@H](C)CN3C(=O)[C@H](C)NC(=O)[C@@H]3CCCCN3C(=O)[C@@H]3CCCN3C2=O)cc1C [Compound 207, (S)-3-(3,5-difluorophenyl)-N-((2R,6S,8aS,14aS,20S,23aS)-2,6-dimethyl-5,8,14,19,23-pentaoxooctadecahydro-1H,5H,14H,19H-pyrido[2,1-i]dipyrrolo[2,1-c:2′,1′-l][1]oxa[4,7,10,13]tetraazacyclohexadecin-20-yl)-2-(3-(3,4-dimethylphenyl)ureido)propanamide] |  |  |  | 8300 ± 1900 nM |
| Cc1ccc(NC(=O)N[C@@H](Cc2cc(F)cc(F)c2)C(=O)N[C@@H]2C(=O)N3C[C@H](O)C[C@H]3C(=O)N3CCOC[C@H]3C(=O)N[C@@H](C)C(=O)N3C[C@H](C)C[C@H]3C(=O)O[C@H]2C)cc1C [Compound 215, (S)-3-(3,5-difluorophenyl)-2-(3-(3,4-dimethylphenyl)ureido)-N-((6aS,8R,12S,13S,15aS,17R,21S,23aS)-8-hydroxy-13,17,21-trimethyl-6,11,15,20,23-pentaoxooctadecahydro-6H,11H,15H-[1,4]oxazino[3,4-i]dipyrrolo[2,1-c:2′,1′-l][1]oxa[4,7,10,13]tetraazacyclohexadecin-12-yl)propanamide] ({NH(3,4-Me2-phenyl)-CO}-[Phe(3,5-F2)][aThr][Hyp][Morpholine(3S-CO)]A[Pro(4R-Me)]; ester 2-C) |  |  | 0.8 µM (≈ 0.672 µg/mL) | 500 ± 10 nM |
| Cc1ccc(NC(=O)N[C@@H](Cc2cc(F)cc(F)c2)C(=O)N[C@H]2COC(=O)[C@@H]3C[C@@H](C)CN3C(=O)[C@H](C)NC(=O)C([C@@H](C)O)N(C)C(=O)[C@@H]3CCCN3C2=O)cc1 (stereo partly drawn) [Compound 322, (S)-3-(3,5-difluorophenyl)-N-((2R,6S,9R,11aS,17S,20aS)-9-((R)-1-hydroxyethyl)-2,6,10-trimethyl-5,8,11,16,20-pentaoxohexadecahydro-1H,5H,16H-dipyrrolo[2,1-c:2′,1′-l][1]oxa[4,7,10,13]tetraazacyclohexadecin-17-yl)-2-(3-(p-tolyl)ureido)propanamide] ({NH(4-Me-phenyl)-CO}-[Phe(3,5-F2)]SP[ξNMeThr]A[Pro(4R-Me)]; ester 2-C) |  | 0.625 µM |  | 560 ± 30 nM |
| Cc1ccc(NC(=O)N[C@@H](Cc2ccccc2)C(=O)N[C@H]2COC(=O)[C@@H]3C[C@@H](C)CN3C(=O)[C@H](C)NC(=O)[C@@H]3CCCCN3C(=O)[C@@H]3CCCN3C2=O)cc1C [Compound 206, (S)—N-((2R,6S,8aS,14aS,20S,23aS)-2,6-dimethyl-5,8,14,19,23-pentaoxooctadecahydro-1H,5H,14H,19H-pyrido[2,1-i]dipyrrolo[2,1-c:2′,1′-l][1]oxa[4,7,10,13]tetraazacyclohexadecin-20-yl)-2-(3-(3,4-dimethylphenyl)ureido)-3-phenylpropanamide] |  |  |  | 1600 ± 300 nM |
| C[C@@H]1C[C@H]2C(=O)OC[C@H](NC(=O)[C@H](Cc3cc(F)cc(F)c3)NC(=O)Nc3ccc4c(c3)OCO4)C(=O)N3C[C@H](O)C[C@H]3C(=O)N3CCOC[C@H]3C(=O)N[C@@H](C)C(=O)N2C1 [Compound 318, (S)-2-(3-(benzo[d][1,3]dioxol-5-yl)ureido)-3-(3,5-difluorophenyl)-N-((6aS,8R,12S,15aS,17R,21S,23aS)-8-hydroxy-17,21-dimethyl-6,11,15,20,23-pentaoxooctadecahydro-6H,11H,15H-[1,4]oxazino[3,4-i]dipyrrolo[2,1-c:2′,1′-l][1]oxa[4,7,10,13]tetraazacyclo-hexadecin-12-yl)propanamide] ({NH(1,3-benzodioxol-5-yl)-CO}-[Phe(3,5-F2)]S[Hyp][Morpholine(3S-CO)]A[Pro(4R-Me)]; ester 2-C) | 460 ± 60 nM |  | 100 µM (≈ 84.2 µg/mL) |  |
| C[C@@H]1C[C@H]2C(=O)OC[C@H](NC(=O)[C@H](Cc3ccccc3)NC(=O)Nc3ccc4c(c3)OCO4)C(=O)N3CCC[C@H]3C(=O)N3CCCC[C@H]3C(=O)N[C@@H](C)C(=O)N2C1 [Compound 194, (S)-2-(3-(benzo[d][1,3]dioxol-5-yl)ureido)-N-((2R,6S,8aS,14aS,20S,23aS)-2,6-dimethyl-5,8,14,19,23-pentaoxooctadecahydro-1H,5H,14H,19H-pyrido[2,1-i]dipyrrolo[2,1-c:2′,1′-l][1]oxa[4,7,10,13]tetraazacyclohexadecin-20-yl)-3-phenylpropanamide] |  |  |  | 1200 ± 600 nM |
